Laboratory results as given in patent publication US9833497B2, “Human originated EGF domain proteins and use of the same” (CHENGDU SOURCEBIO LIMITED-LIABILITY COMPANY, priority 2013, dated 2017).

Key:
Format in all cases: cell-based
E. coli DH5α = assay: Antibacterial activity: MIC and growth curve against E. coli DH5α in 96-well plate; conditions: minimal inhibitory concentration against E. coli DH5α; 96-well plate, 5×10^5 CFU/mL, 37° C., judged after 8 h
Outline: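 MIC taken as lowest protein level with no bacterial growth, tracked by A600 every 30 min during 37 °C, 175 rpm culture. Two-fold protein series 50-12.5 μg/mL final, triplicate wells, against 5×10^5 CFU/mL of LB-washed mid-log cells.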

E. coli BL21 = assay: MIC against Gram-negative bacteria: E. coli BL21
Outline: (§1)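 LB broth cultures at McFarland 0.5, spun down, resuspended, diluted to 5×10^5 CFU/mL final. Two-fold serial dilutions of purified human EGF domain proteins, triplicate. 37° C, 175 rpm shaking. Endpoint: no visible growth.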

Pseudomonas aeruginosa = assay: MIC against Gram-negative bacteria: Pseudomonas aeruginosa
Outline: as §1

Klebsiella pneumonia = assay: MIC against Gram-negative bacteria: Klebsiella pneumonia
Outline: as §1

Enterobacter cloacae = assay: MIC against Gram-negative bacteria: Enterobacter cloacae
Outline: as §1

Aeromonas hydrophila = assay: MIC against Gram-negative bacteria: Aeromonas hydrophila
Outline: as §1

Citrobacter diversus = assay: MIC against Gram-negative bacteria: Citrobacter diversus
Outline: as §1

Moraxella catarrhalis = assay: MIC against Gram-negative bacteria: Moraxella catarrhalis
Outline: as §1

Proteus mirabilis = assay: MIC against Gram-negative bacteria: Proteus mirabilis
Outline: as §1

Proteus vulgaris = assay: MIC against Gram-negative bacteria: Proteus vulgaris
Outline: as §1

Serratia marcescens = assay: MIC against Gram-negative bacteria: Serratia marcescens
Outline: as §1

[1] = 96-well plate, 5×10^5 CFU/mL, 37° C., 10 h
[2] = E. coli BL21, 10 h cultivation at 37° C., 5×10^5 CFU/mL
[3] = P. aeruginosa, 10 h cultivation at 37° C., 5×10^5 CFU/mL
[4] = K. pneumonia, 10 h cultivation at 37° C., 5×10^5 CFU/mL
[5] = E. cloacae, 10 h cultivation at 37° C., 5×10^5 CFU/mL
[6] = A. hydrophila, 10 h cultivation at 37° C., 5×10^5 CFU/mL
[7] = C. diversus, 10 h cultivation at 37° C., 5×10^5 CFU/mL
[8] = M. catarrhalis, 10 h cultivation at 37° C., 5×10^5 CFU/mL
[9] = P. mirabilis, 10 h cultivation at 37° C., 5×10^5 CFU/mL
[10] = P. vulgaris, 10 h cultivation at 37° C., 5×10^5 CFU/mL
[11] = S. marcescens, 10 h cultivation at 37° C., 5×10^5 CFU/mL
[12] = E. coli BL21, 10 h cultivation at 37° C.
[13] = P. aeruginosa, 10 h cultivation at 37° C.
[14] = K. pneumonia, 10 h cultivation at 37° C.
[15] = E. cloacae, 10 h cultivation at 37° C.
[16] = A. hydrophila, 10 h cultivation at 37° C.
[17] = C. diversus, 10 h cultivation at 37° C.
[18] = M. catarrhalis, 10 h cultivation at 37° C.
[19] = P. mirabilis, 10 h cultivation at 37° C.
[20] = P. vulgaris, 10 h cultivation at 37° C.
[21] = S. marcescens, 10 h cultivation at 37° C.
[22] = 10 h cultivation at 37° C., 5×10^5 CFU/mL, two-fold serial dilution

PRT1353 (SDMSCPNDCHQHGRCVNGMCVCDDGYTGEDCR; listed as Homo sapiens)
MIC (E. coli DH5α): 12.5 µg/mL | MIC against E. coli BL21 (E. coli BL21; E. coli BL21, 5×10^5 CFU/mL, 10 h cultivation at 37° C.): 25 µg/mL | MIC against P. aeruginosa (Pseudomonas aeruginosa; Pseudomonas aeruginosa, 5×10^5 CFU/mL, 10 h cultivation at 37° C.): 50 µg/mL | MIC against K. pneumonia (Klebsiella pneumonia; Klebsiella pneumonia, 5×10^5 CFU/mL, 10 h cultivation at 37° C.): 25 µg/mL | MIC against E. cloacae (Enterobacter cloacae; Enterobacter cloacae, 5×10^5 CFU/mL, 10 h cultivation at 37° C.): 12.5 µg/mL | MIC against A. hydrophila (Aeromonas hydrophila; Aeromonas hydrophila, 5×10^5 CFU/mL, 10 h cultivation at 37° C.): 25 µg/mL | MIC against C. diversus (Citrobacter diversus; Citrobacter diversus, 5×10^5 CFU/mL, 10 h cultivation at 37° C.): 50 µg/mL | MIC against M. catarrhalis (Moraxella catarrhalis; Moraxella catarrhalis, 5×10^5 CFU/mL, 10 h cultivation at 37° C.): 25 µg/mL | MIC against P. mirabilis (Proteus mirabilis; Proteus mirabilis, 5×10^5 CFU/mL, 10 h cultivation at 37° C.): 12.5 µg/mL | MIC against P. vulgaris (Proteus vulgaris; Proteus vulgaris, 5×10^5 CFU/mL, 10 h cultivation at 37° C.): 25 µg/mL | MIC against S. marcescens (Serratia marcescens; Serratia marcescens, 5×10^5 CFU/mL, 10 h cultivation at 37° C.): 50 µg/mL

PRT694 (DVDECRRVPPPCAPGRCENSPGSFRCVCGPGFRAGPRAAECL; listed as Homo sapiens)
MIC (E. coli DH5α): 50 µg/mL | MIC E. coli BL21 (E. coli BL21; [1]): 25 µg/mL | MIC P. aeruginosa (Pseudomonas aeruginosa; [1]): 50 µg/mL | MIC K. pneumonia (Klebsiella pneumonia; [1]): 25 µg/mL | MIC E. cloacae (Enterobacter cloacae; [1]): 50 µg/mL | MIC A. hydrophila (Aeromonas hydrophila; [1]): 25 µg/mL | MIC C. diversus (Citrobacter diversus; [1]): 12.5 µg/mL | MIC M. catarrhalis (Moraxella catarrhalis; [1]): 25 µg/mL | MIC P. mirabilis (Proteus mirabilis; [1]): 50 µg/mL | MIC P. vulgaris (Proteus vulgaris; [1]): 12.5 µg/mL | MIC S. marcescens (Serratia marcescens; [1]): 50 µg/mL

PRT126 (IIDRCVPNHCEHGGKCSQTWDSFKCTCDETGYSGATCH; listed as Homo sapiens)
MIC (E. coli DH5α): 12.5 µg/mL | MIC (μg/mL) E. coli BL21 (E. coli BL21; E. coli BL21, 96-well plate, 5×10^5 CFU/mL, 37° C., 10 h): 50 µg/mL | MIC (μg/mL) P. aeruginosa (Pseudomonas aeruginosa; Pseudomonas aeruginosa, 96-well plate, 5×10^5 CFU/mL, 37° C., 10 h): 12.5 µg/mL | MIC (μg/mL) K. pneumonia (Klebsiella pneumonia; Klebsiella pneumonia, 96-well plate, 5×10^5 CFU/mL, 37° C., 10 h): 50 µg/mL | MIC (μg/mL) E. cloacae (Enterobacter cloacae; Enterobacter cloacae, 96-well plate, 5×10^5 CFU/mL, 37° C., 10 h): 12.5 µg/mL | MIC (μg/mL) A. hydrophila (Aeromonas hydrophila; Aeromonas hydrophila, 96-well plate, 5×10^5 CFU/mL, 37° C., 10 h): 12.5 µg/mL | MIC (μg/mL) C. diversus (Citrobacter diversus; Citrobacter diversus, 96-well plate, 5×10^5 CFU/mL, 37° C., 10 h): 12.5 µg/mL | MIC (μg/mL) M. catarrhalis (Moraxella catarrhalis; Moraxella catarrhalis, 96-well plate, 5×10^5 CFU/mL, 37° C., 10 h): 100 µg/mL | MIC (μg/mL) P. mirabilis (Proteus mirabilis; Proteus mirabilis, 96-well plate, 5×10^5 CFU/mL, 37° C., 10 h): 25 µg/mL | MIC (μg/mL) P. vulgaris (Proteus vulgaris; Proteus vulgaris, 96-well plate, 5×10^5 CFU/mL, 37° C., 10 h): 12.5 µg/mL | MIC (μg/mL) S. marcescens (Serratia marcescens; Serratia marcescens, 96-well plate, 5×10^5 CFU/mL, 37° C., 10 h): 25 µg/mL

PRT831 (DGRHCVRRSPCANRNGSCMHRCQVVRGLARCECHVGYQLAADGKACE; listed as Homo sapiens)
MIC (E. coli DH5α): 25 µg/mL | MIC (μg/mL) E. coli BL21 (E. coli BL21; [2]): 25 µg/mL | MIC (μg/mL) P. aeruginosa (Pseudomonas aeruginosa; [3]): 12.5 µg/mL | MIC (μg/mL) K. pneumonia (Klebsiella pneumonia; [4]): 25 µg/mL | MIC (μg/mL) E. cloacae (Enterobacter cloacae; [5]): 12.5 µg/mL | MIC (μg/mL) A. hydrophila (Aeromonas hydrophila; [6]): 25 µg/mL | MIC (μg/mL) C. diversus (Citrobacter diversus; [7]): 50 µg/mL | MIC (μg/mL) M. catarrhalis (Moraxella catarrhalis; [8]): 12.5 µg/mL | MIC (μg/mL) P. mirabilis (Proteus mirabilis; [9]): 50 µg/mL | MIC (μg/mL) P. vulgaris (Proteus vulgaris; [10]): 25 µg/mL | MIC (μg/mL) S. marcescens (Serratia marcescens; [11]): 12.5 µg/mL

PRT935 (NIDECASNPCLNQGTCFDDISGYTCHCVLPYTGKNCQ; listed as Homo sapiens)
MIC (E. coli DH5α): 12.5 µg/mL | MIC (E. coli BL21; [12]): 25 µg/mL | MIC (Pseudomonas aeruginosa; [13]): 25 µg/mL | MIC (Klebsiella pneumonia; [14]): 12.5 µg/mL | MIC (Enterobacter cloacae; [15]): 25 µg/mL | MIC (Aeromonas hydrophila; [16]): 25 µg/mL | MIC (Citrobacter diversus; [17]): 100 µg/mL | MIC (Moraxella catarrhalis; [18]): 12.5 µg/mL | MIC (Proteus mirabilis; [19]): 12.5 µg/mL | MIC (Proteus vulgaris; [20]): 12.5 µg/mL | MIC (Serratia marcescens; [21]): 12.5 µg/mL

PRT968 (LEDPCHSGPCAGRGVCQSSVVAGTARFSCRCPRGFRGPDCS; listed as Homo sapiens)
MIC (E. coli DH5α): 25 µg/mL | MIC (E. coli BL21; [12]): 12.5 µg/mL | MIC (Pseudomonas aeruginosa; [13]): 25 µg/mL | MIC (Klebsiella pneumonia; [14]): 12.5 µg/mL | MIC (Enterobacter cloacae; [15]): 25 µg/mL | MIC (Aeromonas hydrophila; [16]): 25 µg/mL | MIC (Citrobacter diversus; [17]): 12.5 µg/mL | MIC (Moraxella catarrhalis; [18]): 25 µg/mL | MIC (Proteus mirabilis; [19]): 50 µg/mL | MIC (Proteus vulgaris; [20]): 25 µg/mL | MIC (Serratia marcescens; [21]): 12.5 µg/mL

PRT747 (DIDECKDPDACSQICVNYKGYFKCECYPGYEMDLLTKNCK; listed as Homo sapiens)
MIC (E. coli DH5α): 50 µg/mL | MIC (μg/mL) E. coli BL21 (E. coli BL21; [2]): 50 µg/mL | MIC (μg/mL) P. aeruginosa (Pseudomonas aeruginosa; [3]): 12.5 µg/mL | MIC (μg/mL) K. pneumonia (Klebsiella pneumonia; [4]): 12.5 µg/mL | MIC (μg/mL) E. cloacae (Enterobacter cloacae; [5]): 12.5 µg/mL | MIC (μg/mL) A. hydrophila (Aeromonas hydrophila; [6]): 12.5 µg/mL | MIC (μg/mL) C. diversus (Citrobacter diversus; [7]): 50 µg/mL | MIC (μg/mL) M. catarrhalis (Moraxella catarrhalis; [8]): 12.5 µg/mL | MIC (μg/mL) P. mirabilis (Proteus mirabilis; [9]): 50 µg/mL | MIC (μg/mL) P. vulgaris (Proteus vulgaris; [10]): 25 µg/mL | MIC (μg/mL) S. marcescens (Serratia marcescens; [11]): 12.5 µg/mL

PRT932 (QVNECLSNPCIHGNCTGGLSGYKCLCDAGWVGINCE; listed as Homo sapiens)
MIC (E. coli DH5α): 25 µg/mL | MIC (E. coli BL21; [12]): 50 µg/mL | MIC (Pseudomonas aeruginosa; [13]): 12.5 µg/mL | MIC (Klebsiella pneumonia; [14]): 12.5 µg/mL | MIC (Enterobacter cloacae; [15]): 25 µg/mL | MIC (Aeromonas hydrophila; [16]): 12.5 µg/mL | MIC (Citrobacter diversus; [17]): 25 µg/mL | MIC (Moraxella catarrhalis; [18]): 12.5 µg/mL | MIC (Proteus mirabilis; [19]): 25 µg/mL | MIC (Proteus vulgaris; [20]): 12.5 µg/mL | MIC (Serratia marcescens; [21]): 12.5 µg/mL

PRT604 (CPCNRFAELCDPETGSCFNCGGFTTGRNCERCIDGYYGNPSSGQPCRP; listed as Homo sapiens)
MIC (E. coli DH5α): 50 µg/mL | MIC E. coli BL21 (E. coli BL21; [1]): 12.5 µg/mL | MIC P. aeruginosa (Pseudomonas aeruginosa; [1]): 25 µg/mL | MIC K. pneumonia (Klebsiella pneumonia; [1]): 50 µg/mL | MIC E. cloacae (Enterobacter cloacae; [1]): 25 µg/mL | MIC A. hydrophila (Aeromonas hydrophila; [1]): 12.5 µg/mL | MIC C. diversus (Citrobacter diversus; [1]): 25 µg/mL | MIC M. catarrhalis (Moraxella catarrhalis; [1]): 12.5 µg/mL | MIC P. mirabilis (Proteus mirabilis; [1]): 25 µg/mL | MIC P. vulgaris (Proteus vulgaris; [1]): 12.5 µg/mL | MIC S. marcescens (Serratia marcescens; [1]): 25 µg/mL

PRT1047 (SNTCTCKNGGTCLPENGNCVCAPGFRGPSCQ; listed as Homo sapiens)
MIC (E. coli DH5α): 50 µg/mL | MIC E. coli BL21 (E. coli BL21; [22]): 50 µg/mL | MIC P. aeruginosa (Pseudomonas aeruginosa; [22]): 25 µg/mL | MIC K. pneumonia (Klebsiella pneumonia; [22]): 50 µg/mL | MIC E. cloacae (Enterobacter cloacae; [22]): 25 µg/mL | MIC A. hydrophila (Aeromonas hydrophila; [22]): 12.5 µg/mL | MIC C. diversus (Citrobacter diversus; [22]): 50 µg/mL | MIC M. catarrhalis (Moraxella catarrhalis; [22]): 12.5 µg/mL | MIC P. mirabilis (Proteus mirabilis; [22]): 12.5 µg/mL | MIC P. vulgaris (Proteus vulgaris; [22]): 12.5 µg/mL | MIC S. marcescens (Serratia marcescens; [22]): 12.5 µg/mL
